Measurements reported in patent US9643933B2, “Compounds useful as antibiotic tolerance inhibitors” (priority 2013, dated 2017).

test system: Pyocyanin; assay: Pyocyanin Inhibition Assay; assay type: cell-based, P. aeruginosa, strain PA14; conditions: Pseudomonas aeruginosa, PA14, 24 h, read-out: Pyocyanin Inhibition No. IC50 (μM)
Procedure: Test compounds are dissolved in DMSO at 10 mM and stored at −20° C. until needed. Seven test concentrations from 0.0032 micromolar to 31.6 micromolar are used for each compound.
P. aeruginosa, strain PA14, is inoculated into 5 mL of LB broth in a 15-mL sterile glass culture tube and incubated overnight at 37° C. under shaking (˜240 rpm). The overnight culture is then diluted in LB Broth to give an OD600=0.04 (T0 culture). Colony Forming Units (CFU)/mL of the overnight culture and T0 culture are determined by a series of 1:10 serial dilutions in sterile saline. 4×20 μL of each dilution is seeded on LB agar plates and incubated at 35±2° C. for 20 hours. CFU/mL is determined from the dilution that gives 2 to 50 colonies/20 μL.
For concentration response curve (CRC) experiments, internal standard, 2-((5-nitro-1H-indol-2-yl)thio)-N-(4-phenoxyphenyl)acetamide, a compound previously identified as an MvfR inhibitor (see Example 1 of US 2014-0066454 (WO 2012/116010)), and test compounds are serially diluted in DMSO to 200 times each final concentration (0.5% DMSO fmal), and 1 μL/well is dispensed in duplicate into 2 mL wells of a 96-well deep well plate. 200 μL/well of T0 culture are added to each internal standard/test compound well. Wells containing only T0 culture (200 200 μL/well) are used to determine pyocyanin control level and wells containing only LB broth (blank wells) are also included in the plate.
The plate is sealed and incubated at 37° C. under shaking (˜700 rpm) using a microtiter shaker for 24 hours. At the end of the incubation period, the plate is centrifuged at 4,000 g for 40 minutes at room temperature, 100 μL/well of the supernatant is transferred to a 96-microtiter PS flat-bottom plate, and absorbance at 690 nm is determined using SPECTROstar® Nano microplate reader. Pyocyanin concentration (M) is determined using the equation C=A690/(ε×d), where ε is the Pyocyanin extinction coefficient, at A690 nm ε is 4,310 M^−1 cm^−1 and d is the experimentally derived pathlength. The level of pyocyanin in the presence of test compound is expressed as percentage of inhibition with respect to the control. Curve fitting and IC50 determination were carried out using a four-parameter logistic model using GraphPad Prism v.5.

N#Cc1ccc(NC(=O)CSc2nc3cc(S(N)(=O)=O)ccc3[nH]2)cc1 [Compound 108] and CS(=O)(=O)c1ccc2[nH]c(SCC(=O)Nc3ccc(C#N)cc3)nc2c1 [Compound 107] cannot be ordered by IC50: over 10 µM for the first, over 10 µM for the second.

O=C(CSc1nc2cc(O)ccc2[nH]1)Nc1ccc(Cl)cc1 [Compound 131] and O=C(CSc1nc2cc(C(=O)O)ccc2[nH]1)Nc1ccc(Cl)cc1 [Compound 97] cannot be ordered by IC50: over 10 µM for the first, over 10 µM for the second.

N#Cc1ccc(NC(=O)CSc2nc3ncccc3[nH]2)cc1 [Compound 103] and N#Cc1ccc(NC(=O)CSc2nc3cnccc3[nH]2)cc1 [Compound 102] cannot be ordered by IC50: over 10 µM for the first, over 10 µM for the second.

COc1cc(Oc2cccnc2)ccc1NC(=O)CSc1nc2cc(C#N)ccc2[nH]1 [Compound 169, 2-((5-Cyano-1H-benzo[d]imidazol-2-yl)thio)-N-(2-methoxy-4-(pyridin-3-yloxy)phenyl)acetamide] and Cc1cc(Oc2cccnc2)ccc1NC(=O)CSc1nc2cc(C#N)ccc2[nH]1 [Compound 168, 2-((5-Cyano-1H-benzo[d]imidazol-2-yl)thio)-N-(2-methyl-4-(pyridin-3-yloxy)phenyl)acetamide] fall in the same range of IC50: 0.1 to 1 µM for the first, 0.1 to 1 µM for the second.

Cc1ccc(NC(=O)C(C)Sc2nc3ccc(Cl)cc3[nH]2)cc1 (stereo not drawn) [Compound 120] and CC(=O)c1ccc(NC(=O)CSc2nc3ccc(C)cc3[nH]2)cc1 [Compound 124] cannot be ordered by IC50: over 10 µM for the first, over 10 µM for the second.

O=C(CSc1nc2cccnc2[nH]1)Nc1ccccc1 [Compound 122] and Cc1cccc(NC(=O)CSc2nc3cccnc3[nH]2)c1 [Compound 121] cannot be ordered by IC50: over 10 µM for the first, over 10 µM for the second.

CNC(=O)c1ccc2[nH]c(SCC(=O)Nc3ccc(C#N)cc3)nc2c1 [Compound 129] and CNC(=O)c1ccc2[nH]c(SCC(=O)Nc3ccc(Cl)cc3)nc2c1 [Compound 115] cannot be ordered by IC50: over 10 µM for the first, over 10 µM for the second.

N#Cc1ccc2[nH]c(SCC(=O)Nc3ccc(Oc4cccnc4)cc3Cl)nc2c1 [Compound 170, N-(2-chloro-4-(pyridin-3-yloxy)phenyl)-2-((5-cyano-1H-benzo[d]imidazol-2-yl)thio)acetamide] and O=C(CSc1nc2cc(Cl)ccc2[nH]1)Nc1ccc(Oc2cccnc2)cc1Cl [Compound 165, 2-((5-Chloro-1H-benzo[d]imidazol-2-yl)thio)-N-(2-chloro-4-(pyridin-3-yloxy)phenyl)acetamide] cannot be ordered by IC50: under 0.1 µM for the first, under 0.1 µM for the second.

CC(=O)Nc1cccc(NC(=O)CSc2nc3cc(C)ccc3[nH]2)c1 [Compound 123] and COC(=O)c1ccc2[nH]c(SCC(=O)Nc3ccc(Cl)cc3)nc2c1 [Compound 109] cannot be ordered by IC50: over 10 µM for the first, over 10 µM for the second.

O=C(CSc1nc2ccncc2[nH]1)Nc1ccc(Cl)cc1 [Compound 100] and O=C(CSc1nc2cccnc2[nH]1)Nc1ccc(Cl)cc1 [Compound 101] cannot be ordered by IC50: over 10 µM for the first, over 10 µM for the second.

First: O=C(C[C@H](O)c1nc2ccc(Cl)cc2[nH]1)Nc1ccc(Oc2cccnc2)cc1 [Compound 172, (S)-3-(6-chloro-1H-benzo[d]imidazol-2-yl)-3-hydroxy-N-(4-(pyridin-3-yloxy)phenyl)propanamide]
Second: COc1cc(Cl)cc2nc(SCC(=O)Nc3ccc(Oc4cccnc4)cc3)[nH]c12 [Compound 164, 2-((5-chloro-7-methoxy-1H-benzo[d]imidazol-2-yl)thio)-N-(4-(pyridin-3-yloxy)phenyl)acetamide]
The IC50 of the first is higher: 1 to 10 µM for the first, under 0.1 µM for the second.

N#Cc1ccc(NC(=O)CSc2nc3ccc(-c4ncco4)cc3[nH]2)cc1 [Compound 128] and O=C(CSc1nc2ccc(-c3ncco3)cc2[nH]1)Nc1ccc(Cl)cc1 [Compound 127] cannot be ordered by IC50: over 10 µM for the first, over 10 µM for the second.

Cc1ccc(NC(=O)CSc2nc3cccnc3[nH]2)cc1 [Compound 133] and O=C(CSc1nc2ccc(-c3ncccn3)cc2[nH]1)Nc1ccc(Cl)cc1 [Compound 114] cannot be ordered by IC50: over 10 µM for the first, over 10 µM for the second.

CS(=O)(=O)c1ccc2[nH]c(SCC(=O)Nc3ccc(Cl)cc3)nc2c1 [Compound 98] and NS(=O)(=O)c1ccc2[nH]c(SCC(=O)Nc3ccc(Cl)cc3)nc2c1 [Compound 99] cannot be ordered by IC50: over 10 µM for the first, over 10 µM for the second.

Compared with COc1cc(Oc2cccnc2)ccc1NC(=O)CSc1nc2cc(Cl)ccc2[nH]1 [Compound 161, 2-((5-chloro-1H-benzo[d]imidazol-2-yl)thio)-N-(2-methoxy-4-(pyridin-3-yloxy)phenyl)acetamide], Cc1cc(Oc2cccnc2)ccc1NC(=O)CSc1nc2cc(Cl)ccc2[nH]1 [Compound 163, 2-((5-Chloro-1H-benzo[d]imidazol-2-yl)thio)-N-(2-methyl-4-(pyridin-3-yloxy)phenyl)acetamide] is higher in IC50: under 0.1 µM for the first, 0.1 to 1 µM for the second.

Compared with COc1cc(Cl)cc2nc(SCC(=O)Nc3ccc(Cl)cc3)[nH]c12 [Compound 166, 2-((5-Chloro-7-methoxy-1H-benzo[d]imidazol-2-yl)thio)-N-(4-chlorophenyl)acetamide], CN(C)C(=O)c1ccc2[nH]c(SCC(=O)Nc3ccc(Cl)cc3)nc2c1 [Compound 118] is higher in IC50: 0.1 to 1 µM for the first, over 10 µM for the second. The first is the more potent here.

O=C(CSc1nc2cc(Cl)ccc2[nH]1)Nc1ccc(Oc2cccnc2)cc1O [Compound 162, 2-((5-Chloro-1H-benzo[d]imidazol-2-yl)thio)-N-(2-hydroxy-4-(pyridin-3-yloxy)phenyl)acetamide] and CC(C)(O)c1cc(Cl)cc2nc(SCC(=O)Nc3ccc(Oc4cccnc4)cc3)[nH]c12 [Compound 171, 2-((5-chloro-7-(2-hydroxypropan-2-yl)-1H-benzo[d]imidazol-2-yl)thio)-N-(4-(pyridin-3-yloxy)phenyl)acetamide] cannot be ordered by IC50: under 0.1 µM for the first, under 0.1 µM for the second.

N#Cc1ccc(NC(=O)CSc2nc3cc(O)ccc3[nH]2)cc1 [Compound 130] and CN(C)C(=O)c1ccc2[nH]c(SCC(=O)Nc3ccc(C#N)cc3)nc2c1 [Compound 119] cannot be ordered by IC50: over 10 µM for the first, over 10 µM for the second.

First: Cc1cc(Cl)ccc1NC(=O)CSc1nc2cc(C#N)ccc2[nH]1 [Compound 160, N-(4-chloro-2-methylphenyl)-2-((5-cyano-1H-benzo[d]imidazol-2-yl)thio)acetamide]
Second: N#Cc1ccc2[nH]c(SCC(=O)Nc3ccc(Cl)cc3Cl)nc2c1 [Compound 167, 2-((5-Cyano-1H-benzo[d]imidazol-2-yl)thio)-N-(2,4-dichlorophenyl)acetamide]
The IC50 of the first is higher: 1 to 10 µM for the first, 0.1 to 1 µM for the second. The second is the more potent here.

Molecule O=C(CSc1nc2ccncc2[nH]1)Nc1ccccc1F [Compound 132] has an IC50 of over 10 µM.
